Reference: the NIST ThermoML archive (doi:10.1021/acs.jced.7b00106)

Conditions: Hot wire method

FC(F)(F)/C=C/Cl [(E)-1-chloro-3,3,3-trifluoroprop-1-ene]
Conditions	thermal conductivity [W/m/K]
302.53 K, 136 kPa, Gas	0.01102
302.53 K, 16444 kPa, Liquid	0.0897
302.53 K, 47194 kPa, Liquid	0.1006
302.55 K, 122 kPa, Gas	0.01105
302.55 K, 36223 kPa, Liquid	0.09702
302.57 K, 8074 kPa, Liquid	0.08557
302.59 K, 25791 kPa, Liquid	0.09335
302.6 K, 16014 kPa, Liquid	0.08919
302.61 K, 11882 kPa, Liquid	0.08715
302.61 K, 30546 kPa, Liquid	0.0947
302.62 K, 142 kPa, Gas	0.01123
302.62 K, 7818 kPa, Liquid	0.08552
302.64 K, 122 kPa, Gas	0.01131
302.64 K, 131 kPa, Gas	0.01128
302.64 K, 139 kPa, Gas	0.01119
302.65 K, 7853 kPa, Liquid	0.08571
302.65 K, 25491 kPa, Liquid	0.09284
302.66 K, 20510 kPa, Liquid	0.09077
302.68 K, 16449 kPa, Liquid	0.08922
302.7 K, 373 kPa, Liquid	0.08122
302.72 K, 4080 kPa, Liquid	0.08356
302.72 K, 8075 kPa, Liquid	0.08531
302.75 K, 11886 kPa, Liquid	0.08659
302.75 K, 16005 kPa, Liquid	0.08846
302.75 K, 62930 kPa, Liquid	0.106
302.76 K, 303 kPa, Liquid	0.08187
302.76 K, 65463 kPa, Liquid	0.1068
302.78 K, 7822 kPa, Liquid	0.08491
302.79 K, 56432 kPa, Liquid	0.1045
302.81 K, 7852 kPa, Liquid	0.08507
302.82 K, 48051 kPa, Liquid	0.1011
302.83 K, 48410 kPa, Liquid	0.1013
302.85 K, 131 kPa, Gas	0.0108
302.85 K, 136 kPa, Gas	0.01096
302.86 K, 122 kPa, Gas	0.011
302.87 K, 381 kPa, Liquid	0.08077
302.88 K, 4074 kPa, Liquid	0.08317
302.91 K, 62949 kPa, Liquid	0.1057
302.92 K, 299 kPa, Liquid	0.08155
302.92 K, 36387 kPa, Liquid	0.09706
302.92 K, 65445 kPa, Liquid	0.1067
302.93 K, 41986 kPa, Liquid	0.09906
302.93 K, 47187 kPa, Liquid	0.1008
302.95 K, 36224 kPa, Liquid	0.09698
302.95 K, 56429 kPa, Liquid	0.1038
302.98 K, 48055 kPa, Liquid	0.1009
303 K, 48417 kPa, Liquid	0.101
303.02 K, 25798 kPa, Liquid	0.09309
303.03 K, 30542 kPa, Liquid	0.09496
303.04 K, 142 kPa, Gas	0.01123
303.06 K, 137 kPa, Gas	0.01133
303.07 K, 121 kPa, Gas	0.01128
303.07 K, 131 kPa, Gas	0.01133
303.08 K, 25486 kPa, Liquid	0.09308
303.09 K, 20509 kPa, Liquid	0.09124
303.09 K, 41994 kPa, Liquid	0.09863
303.09 K, 47182 kPa, Liquid	0.1005
303.12 K, 16450 kPa, Liquid	0.08937
303.12 K, 36213 kPa, Liquid	0.09661
303.17 K, 135 kPa, Gas	0.01096
303.18 K, 122 kPa, Gas	0.01101
303.18 K, 132 kPa, Gas	0.0107
303.18 K, 8071 kPa, Liquid	0.0855
303.2 K, 16008 kPa, Liquid	0.08894
303.2 K, 25794 kPa, Liquid	0.0928
303.21 K, 11886 kPa, Liquid	0.08665
303.21 K, 30558 kPa, Liquid	0.09462
303.24 K, 7824 kPa, Liquid	0.08506
303.25 K, 25489 kPa, Liquid	0.09272
303.27 K, 20510 kPa, Liquid	0.09093
303.28 K, 7854 kPa, Liquid	0.08529
303.31 K, 16446 kPa, Liquid	0.08918
